Measurements published in ChEMBL document CHEMBL1201862, “PubChem BioAssay data set” (2004).
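Compound exposure: 48 hours, 5 concentrations, 96-well plates. Abbreviation: GI50, concentration required for 50% inhibition of growth.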 Active and inactive are the calls of the source. No stated cut-off is given here; in the data, active = GI50 up to about 1.1 µM and inactive = higher.

Key:
Assay in all cases: DTP human tumour cell line panel, 48 h
OVCAR-8 = system: OVCAR-8
SF-268 = system: SF-268
RXF 393 = system: RXF 393
A549 = system: A549
SW-620 = system: SW-620
SNB-75 = system: SNB-75
SF-295 = system: SF-295
KM12 = system: KM12
LOX IMVI = system: LOX IMVI
OVCAR-3 = system: OVCAR-3
NCI/ADR-RES = system: NCI/ADR-RES
NCI-H522 = system: NCI-H522
UO-31 = system: UO-31
SR = system: SR
ACHN = system: ACHN
K562 = system: K562
SK-OV-3 = system: SK-OV-3
HCC 2998 = system: HCC 2998
NCI-H460 = system: NCI-H460
SNB-19 = system: SNB-19

Measured: GI50

COC(=O)[C@H]1CO[C@@H](C(C)(C)C)N1C(=O)N1C=CC(=O)C[C@@H]1C
inactive: OVCAR-8 > 100 µM | SF-268 > 100 µM | RXF 393 > 100 µM | A549 > 100 µM | SW-620 > 100 µM | SNB-75 > 100 µM | SF-295 > 100 µM | KM12 > 100 µM | LOX IMVI > 100 µM | OVCAR-3 > 100 µM | NCI/ADR-RES > 100 µM | NCI-H522 > 100 µM | UO-31 > 100 µM | SR > 100 µM | ACHN > 100 µM | K562 > 100 µM | SK-OV-3 > 100 µM

CC(=O)OC12c3ccccc3-c3ccccc3C1C(C(=O)O)C2C(=O)O (stereo not given)
inactive: OVCAR-8 > 10 µM | SF-268 > 10 µM | RXF 393 > 10 µM | SW-620 > 10 µM | SF-295 > 10 µM | KM12 > 10 µM | LOX IMVI > 10 µM | OVCAR-3 > 10 µM | HCC 2998 > 10 µM | NCI/ADR-RES > 10 µM | NCI-H522 > 10 µM | UO-31 > 10 µM | SR > 10 µM | NCI-H460 > 10 µM | ACHN > 10 µM | K562 > 10 µM | SNB-19 > 10 µM | SK-OV-3 > 10 µM

CCCCCCCCCCCCCCCCNC(=O)/C(=C\c1ccc(Cl)c(Cl)c1)NC(=O)c1ccccc1
inactive: OVCAR-8 59.6 µM | SF-268 46.9 µM | RXF 393 15.7 µM | A549 43.6 µM | SW-620 31.7 µM | SNB-75 16.7 µM | SF-295 55.2 µM | KM12 52.6 µM | LOX IMVI 21.9 µM | OVCAR-3 > 100 µM | NCI/ADR-RES 48.3 µM | NCI-H522 37.2 µM | UO-31 42 µM | SR 18.2 µM | NCI-H460 36.6 µM | ACHN 47.4 µM | K562 22 µM | SNB-19 46.3 µM | SK-OV-3 53 µM

Cn1cnc2c(NCc3ccccc3)nc(NCCO)nc21 [OLOMOUCINE]
inactive: OVCAR-8 66.2 µM | SF-268 49 µM | RXF 393 67 µM | A549 43.9 µM | SW-620 43.5 µM | SNB-75 21.3 µM | SF-295 41.1 µM | KM12 35 µM | LOX IMVI 24 µM | HCC 2998 79.1 µM | NCI/ADR-RES > 93.8 µM | NCI-H522 51.4 µM | UO-31 31.4 µM | SR 29.7 µM | NCI-H460 104 µM | ACHN 35.9 µM | K562 107 µM | SNB-19 48.6 µM | SK-OV-3 > 95.5 µM

CSC1NNC2(C(=O)N1)c1ccccc1-c1ccccc12 (stereo not given)
inactive: OVCAR-8 > 10 µM | SF-268 > 10 µM | RXF 393 > 10 µM | A549 > 10 µM | SW-620 > 10 µM | SNB-75 > 10 µM | SF-295 > 10 µM | KM12 > 10 µM | LOX IMVI > 10 µM | HCC 2998 > 10 µM | NCI/ADR-RES > 10 µM | NCI-H522 > 10 µM | UO-31 > 10 µM | SR > 10 µM | NCI-H460 > 10 µM | ACHN > 10 µM | K562 > 10 µM | SNB-19 > 10 µM | SK-OV-3 > 10 µM

O=C(O)C1CCCCC1C(=O)Nc1nc2ccccc2[nH]1 (stereo not given)
inactive: OVCAR-8 > 100 µM | SF-268 > 100 µM | RXF 393 > 100 µM | A549 > 100 µM | SW-620 > 100 µM | SNB-75 > 100 µM | SF-295 > 100 µM | KM12 > 100 µM | LOX IMVI > 100 µM | OVCAR-3 > 100 µM | NCI/ADR-RES > 100 µM | NCI-H522 > 100 µM | UO-31 > 100 µM | SR > 100 µM | NCI-H460 > 100 µM | ACHN > 100 µM | SNB-19 > 100 µM | SK-OV-3 > 100 µM
